Holding throughout (assay type): cell-based
Holding throughout (settings): 24 hours of compound treatment, 50 nM and 500 nM

The target of one experiment is T1, WEE1 (Homo sapiens, UniProt P30291+Q96SW2).
T1 construct: effects of the compounds of the present disclosure on the expression of target proteins in cells; endogenous in cells; host or cells: human PBMCs (hPBMCs)
In words: Western-blot assay, substrate protein degradation in hPBMCs: WEE1.

In a further experiment the target is T2, IKZF1 (Homo sapiens, UniProt Q13422+Q96SW2).
T2 construct: effects of the compounds of the present disclosure on the expression of target proteins in cells; endogenous in cells; host or cells: human PBMCs (hPBMCs)
In words: Western-blot assay, substrate protein degradation in hPBMCs: IKZF1.

The next experiment addresses T3, IKZF2 (Homo sapiens, UniProt Q96SW2+Q9UKS7).
T3 construct: effects of the compounds of the present disclosure on the expression of target proteins in cells; endogenous in cells; host or cells: human PBMCs (hPBMCs)
The experiment is described as follows: Western-blot assay, substrate protein degradation in hPBMCs: IKZF2.

Another experiment deals with T4, IKZF3 (Homo sapiens, UniProt Q96SW2+Q9UKT9).
T4 construct: effects of the compounds of the present disclosure on the expression of target proteins in cells; endogenous in cells; host or cells: human PBMCs (hPBMCs)
The experiment is described as follows: Western-blot assay, substrate protein degradation in hPBMCs: IKZF3.

The target of another experiment is T5, CK1α (Homo sapiens, UniProt P48729+Q96SW2).
T5 construct: effects of the compounds of the present disclosure on the expression of target proteins in cells; endogenous in cells; host or cells: human PBMCs (hPBMCs)
The experiment is described as follows: Western-blot assay, substrate protein degradation in hPBMCs: CK1α.

The target in the next experiment is T6, GSPT1 (Homo sapiens, UniProt P15170+Q96SW2).
T6 construct: effects of the compounds of the present disclosure on the expression of target proteins in cells; endogenous in cells; host or cells: human PBMCs (hPBMCs)
In words: Western-blot assay, substrate protein degradation in hPBMCs: GSPT1.

T4 sequence (Q9UKT9 whole entry): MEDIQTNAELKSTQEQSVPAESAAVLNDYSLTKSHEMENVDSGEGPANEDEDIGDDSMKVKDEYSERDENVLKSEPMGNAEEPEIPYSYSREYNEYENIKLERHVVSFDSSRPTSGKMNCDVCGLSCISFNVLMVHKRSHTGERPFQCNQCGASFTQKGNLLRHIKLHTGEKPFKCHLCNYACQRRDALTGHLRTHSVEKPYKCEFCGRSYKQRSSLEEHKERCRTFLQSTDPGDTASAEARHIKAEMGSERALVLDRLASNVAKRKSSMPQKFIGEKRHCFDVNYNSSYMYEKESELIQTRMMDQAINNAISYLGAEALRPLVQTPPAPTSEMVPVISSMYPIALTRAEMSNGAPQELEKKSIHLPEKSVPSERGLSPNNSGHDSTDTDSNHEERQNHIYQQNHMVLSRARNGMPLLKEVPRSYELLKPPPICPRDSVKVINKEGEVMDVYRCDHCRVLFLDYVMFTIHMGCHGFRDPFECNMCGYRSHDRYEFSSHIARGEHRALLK
T4 sequence (Q96SW2 whole entry): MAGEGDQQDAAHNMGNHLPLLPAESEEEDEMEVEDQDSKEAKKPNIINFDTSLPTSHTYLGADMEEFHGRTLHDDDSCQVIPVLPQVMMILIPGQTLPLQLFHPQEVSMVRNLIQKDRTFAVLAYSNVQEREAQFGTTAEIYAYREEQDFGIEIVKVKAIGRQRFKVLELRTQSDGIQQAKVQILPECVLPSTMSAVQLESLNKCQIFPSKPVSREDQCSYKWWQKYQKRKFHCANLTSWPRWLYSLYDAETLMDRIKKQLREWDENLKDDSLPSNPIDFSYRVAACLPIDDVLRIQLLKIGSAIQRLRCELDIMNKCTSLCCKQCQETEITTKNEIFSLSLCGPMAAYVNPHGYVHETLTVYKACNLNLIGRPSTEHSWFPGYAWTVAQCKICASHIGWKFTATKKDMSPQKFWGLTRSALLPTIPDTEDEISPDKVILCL
T4 sequence (Q16531 whole entry partner): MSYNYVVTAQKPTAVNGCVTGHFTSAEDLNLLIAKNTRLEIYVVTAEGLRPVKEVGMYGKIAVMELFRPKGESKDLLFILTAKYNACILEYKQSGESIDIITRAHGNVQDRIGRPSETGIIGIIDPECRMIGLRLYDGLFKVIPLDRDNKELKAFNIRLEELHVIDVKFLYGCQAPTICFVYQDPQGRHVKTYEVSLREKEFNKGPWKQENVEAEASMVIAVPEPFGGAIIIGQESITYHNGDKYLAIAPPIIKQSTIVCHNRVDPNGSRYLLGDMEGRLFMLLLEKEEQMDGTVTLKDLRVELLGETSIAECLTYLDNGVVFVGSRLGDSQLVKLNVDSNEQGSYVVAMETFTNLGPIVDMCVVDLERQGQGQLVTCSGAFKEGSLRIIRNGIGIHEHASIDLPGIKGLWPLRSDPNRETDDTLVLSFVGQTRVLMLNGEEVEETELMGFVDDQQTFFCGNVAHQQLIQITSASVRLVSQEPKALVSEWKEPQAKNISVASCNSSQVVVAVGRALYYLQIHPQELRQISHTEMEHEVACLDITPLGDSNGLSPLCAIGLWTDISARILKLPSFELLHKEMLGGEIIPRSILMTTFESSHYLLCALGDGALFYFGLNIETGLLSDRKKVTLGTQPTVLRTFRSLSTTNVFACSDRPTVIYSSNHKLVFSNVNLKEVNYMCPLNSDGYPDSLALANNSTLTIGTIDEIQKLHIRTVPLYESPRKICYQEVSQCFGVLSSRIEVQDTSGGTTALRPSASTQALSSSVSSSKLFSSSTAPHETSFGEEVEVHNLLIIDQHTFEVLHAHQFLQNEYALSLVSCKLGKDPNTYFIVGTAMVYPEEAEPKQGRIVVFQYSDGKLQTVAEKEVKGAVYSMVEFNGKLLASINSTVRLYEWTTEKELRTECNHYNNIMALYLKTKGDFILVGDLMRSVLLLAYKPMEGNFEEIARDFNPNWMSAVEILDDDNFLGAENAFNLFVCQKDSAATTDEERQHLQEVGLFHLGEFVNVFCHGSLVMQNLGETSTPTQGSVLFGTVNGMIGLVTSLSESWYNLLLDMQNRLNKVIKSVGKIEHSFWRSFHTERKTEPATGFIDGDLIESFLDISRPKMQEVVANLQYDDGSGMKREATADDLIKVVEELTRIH
T6 sequence (P15170 whole entry): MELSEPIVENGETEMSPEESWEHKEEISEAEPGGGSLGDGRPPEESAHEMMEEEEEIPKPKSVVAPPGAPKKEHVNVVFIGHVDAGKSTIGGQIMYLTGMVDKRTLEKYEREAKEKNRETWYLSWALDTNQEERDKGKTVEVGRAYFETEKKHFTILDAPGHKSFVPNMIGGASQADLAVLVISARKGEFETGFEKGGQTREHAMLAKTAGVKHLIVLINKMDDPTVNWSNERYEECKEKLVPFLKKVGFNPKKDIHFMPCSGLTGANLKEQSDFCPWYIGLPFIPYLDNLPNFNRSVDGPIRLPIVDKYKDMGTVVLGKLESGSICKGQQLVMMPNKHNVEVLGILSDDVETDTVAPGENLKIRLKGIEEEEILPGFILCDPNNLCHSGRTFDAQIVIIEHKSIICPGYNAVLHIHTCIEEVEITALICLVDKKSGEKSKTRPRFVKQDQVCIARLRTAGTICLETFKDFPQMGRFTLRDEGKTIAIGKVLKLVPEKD
T6 sequence (Q96SW2 whole entry): as the sequence (Q96SW2 whole entry) above
T6 sequence (Q16531 whole entry partner): as the sequence (Q16531 whole entry partner) above
T1 sequence (P30291 whole entry): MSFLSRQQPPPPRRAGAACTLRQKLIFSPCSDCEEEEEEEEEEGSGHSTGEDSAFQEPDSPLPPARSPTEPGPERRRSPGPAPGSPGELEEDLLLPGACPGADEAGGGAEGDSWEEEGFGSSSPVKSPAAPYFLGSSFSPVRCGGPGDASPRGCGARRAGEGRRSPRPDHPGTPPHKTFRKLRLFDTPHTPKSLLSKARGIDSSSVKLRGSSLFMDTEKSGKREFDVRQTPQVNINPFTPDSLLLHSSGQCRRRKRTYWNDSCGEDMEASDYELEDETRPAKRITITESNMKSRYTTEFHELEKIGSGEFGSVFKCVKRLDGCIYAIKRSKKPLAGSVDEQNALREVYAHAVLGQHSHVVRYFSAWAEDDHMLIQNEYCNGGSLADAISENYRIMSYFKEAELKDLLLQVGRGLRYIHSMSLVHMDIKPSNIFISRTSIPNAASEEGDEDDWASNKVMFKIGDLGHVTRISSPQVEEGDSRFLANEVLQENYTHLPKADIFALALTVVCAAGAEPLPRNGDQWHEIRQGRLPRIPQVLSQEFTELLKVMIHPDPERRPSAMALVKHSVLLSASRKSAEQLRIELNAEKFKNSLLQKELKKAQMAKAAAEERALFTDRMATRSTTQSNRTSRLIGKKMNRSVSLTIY
T1 sequence (Q96SW2 whole entry): as the sequence (Q96SW2 whole entry) above
T1 sequence (Q16531 whole entry partner): as the sequence (Q16531 whole entry partner) above
T2 sequence (Q13422 whole entry): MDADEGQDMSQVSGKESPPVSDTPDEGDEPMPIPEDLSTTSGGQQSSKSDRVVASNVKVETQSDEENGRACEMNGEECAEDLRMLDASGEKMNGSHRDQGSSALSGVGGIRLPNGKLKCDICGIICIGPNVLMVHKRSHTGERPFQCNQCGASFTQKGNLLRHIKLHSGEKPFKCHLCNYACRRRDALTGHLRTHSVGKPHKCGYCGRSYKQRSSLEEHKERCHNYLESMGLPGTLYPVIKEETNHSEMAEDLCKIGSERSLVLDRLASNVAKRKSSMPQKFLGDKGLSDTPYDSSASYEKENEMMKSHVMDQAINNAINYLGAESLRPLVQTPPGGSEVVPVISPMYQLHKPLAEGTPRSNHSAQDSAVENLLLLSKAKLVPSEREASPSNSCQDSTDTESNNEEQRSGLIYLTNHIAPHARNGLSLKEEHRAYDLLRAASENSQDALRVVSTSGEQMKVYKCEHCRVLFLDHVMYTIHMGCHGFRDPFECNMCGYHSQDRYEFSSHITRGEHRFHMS
T2 sequence (Q96SW2 whole entry): as the sequence (Q96SW2 whole entry) above
T2 sequence (Q16531 whole entry partner): as the sequence (Q16531 whole entry partner) above
T3 sequence (Q9UKS7 whole entry): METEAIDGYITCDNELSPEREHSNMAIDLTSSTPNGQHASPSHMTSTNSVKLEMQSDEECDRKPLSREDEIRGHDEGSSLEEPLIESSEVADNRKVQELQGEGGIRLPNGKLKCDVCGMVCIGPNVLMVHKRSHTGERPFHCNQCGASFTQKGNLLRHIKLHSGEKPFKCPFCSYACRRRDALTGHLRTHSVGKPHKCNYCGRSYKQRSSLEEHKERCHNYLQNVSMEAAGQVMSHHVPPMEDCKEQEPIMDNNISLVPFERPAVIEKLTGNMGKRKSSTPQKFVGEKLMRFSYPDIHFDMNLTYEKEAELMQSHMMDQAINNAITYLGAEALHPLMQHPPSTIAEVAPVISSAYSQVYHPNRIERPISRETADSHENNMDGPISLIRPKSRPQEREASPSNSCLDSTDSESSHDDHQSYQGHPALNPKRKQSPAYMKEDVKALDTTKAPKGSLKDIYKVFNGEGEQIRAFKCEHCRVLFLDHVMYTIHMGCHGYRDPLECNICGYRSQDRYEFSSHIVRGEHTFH
T3 sequence (Q96SW2 whole entry): as the sequence (Q96SW2 whole entry) above
T3 sequence (Q16531 whole entry partner): as the sequence (Q16531 whole entry partner) above

As to `O=C1CCN(N2C(=O)c3ccc(CN4CCC(C5CCOc6cc(F)ccc65)CC4)cc3C2=O)C(=O)N1` (stereo not drawn) [GT-07684, 2-(2,4-dioxotetrahydropyrimidin-1(2H)-yl)-5-((4-(7-fluorochroman-4-yl)piperidin-1-yl)methyl)isoindoline-1,3-dione], the “substrate protein remaining % WEE1” value on WEE1 is given as “B (80%< substrate protein remaining %≤ 100%)”. In addition, the “substrate protein remaining % IKZF1” value at IKZF1 is reported as “B (80%< substrate protein remaining %≤ 100%)”. For the same compound, the “substrate protein remaining % IKZF2” value at IKZF2 is on record as “B (80%< substrate protein remaining %≤ 100%)”. On IKZF3, the “substrate protein remaining % IKZF3” value is on record as “B (80%< substrate protein remaining %≤ 100%)”. The “substrate protein remaining % CK1α” value on CK1α was “B (80%< substrate protein remaining %≤ 100%)”. For the same compound, on GSPT1, the “substrate protein remaining % GSPT1” value is listed as “A (0% ≤ substrate protein remaining % ≤ 80%)”.
With `O=C1CCN(N2C(=O)c3ccc(CN4CCC(=C5CCOc6cc(F)ccc65)CC4)cc3C2=O)C(=O)N1` [GT-07685, 2-(2,4-dioxotetrahydropyrimidin-1(2H)-yl)-5-((4-(7-fluorochroman-4-ylidene)piperidin-1-yl)methyl)isoindoline-1,3-dione], on WEE1, the “substrate protein remaining % WEE1” value is recorded as “B (80%< substrate protein remaining %≤ 100%)”. In addition, the “substrate protein remaining % IKZF1” value at IKZF1 was “B (80%< substrate protein remaining %≤ 100%)”. Besides, at IKZF2, the “substrate protein remaining % IKZF2” value is listed as “B (80%< substrate protein remaining %≤ 100%)”. Besides, the “substrate protein remaining % IKZF3” value at IKZF3 is listed as “B (80%< substrate protein remaining %≤ 100%)”. Also, the “substrate protein remaining % CK1α” value on CK1α is “B (80%< substrate protein remaining %≤ 100%)”. For the same compound, at GSPT1, the “substrate protein remaining % GSPT1” value is reported as “A (0% ≤ substrate protein remaining % ≤ 80%)”.
In the case of `O=C1CCN(N2C(=O)c3ccc(CN4CCC(c5cccc6c(F)cccc56)CC4)cc3C2=O)C(=O)N1` [GT-07686, 2-(2,4-dioxotetrahydropyrimidin-1(2H)-yl)-5-((4-(5-fluoronaphthalen-1-yl)piperidin-1-yl)methyl)isoindoline-1,3-dione], the “substrate protein remaining % WEE1” value on WEE1 was “B (80%< substrate protein remaining %≤ 100%)”. Besides, the “substrate protein remaining % IKZF1” value at IKZF1 was “B (80%< substrate protein remaining %≤ 100%)”. For the same compound, on IKZF2, the “substrate protein remaining % IKZF2” value is reported as “B (80%< substrate protein remaining %≤ 100%)”. On IKZF3, the “substrate protein remaining % IKZF3” value is “B (80%< substrate protein remaining %≤ 100%)”. In addition, on CK1α, the “substrate protein remaining % CK1α” value is on record as “B (80%< substrate protein remaining %≤ 100%)”. Moreover, the “substrate protein remaining % GSPT1” value at GSPT1 was “A (0% ≤ substrate protein remaining % ≤ 80%)”.
As to `O=C1CCN(N2C(=O)c3ccc(CN4CC=C(c5cccc6c(F)cccc56)CC4)cc3C2=O)C(=O)N1` [GT-07687, 2-(2,4-dioxotetrahydropyrimidin-1(2H)-yl)-5-((4-(5-fluoronaphthalen-1-yl)-3,6-dihydropyridin-1(2H)-yl)methyl)isoindoline-1,3-dione], on WEE1, the “substrate protein remaining % WEE1” value is “B (80%< substrate protein remaining %≤ 100%)”. For the same compound, the “substrate protein remaining % IKZF1” value at IKZF1 is reported as “B (80%< substrate protein remaining %≤ 100%)”. The “substrate protein remaining % IKZF2” value at IKZF2 is “B (80%< substrate protein remaining %≤ 100%)”. Moreover, the “substrate protein remaining % IKZF3” value on IKZF3 is on record as “B (80%< substrate protein remaining %≤ 100%)”. The “substrate protein remaining % CK1α” value on CK1α is listed as “B (80%< substrate protein remaining %≤ 100%)”. Moreover, the “substrate protein remaining % GSPT1” value on GSPT1 is “A (0% ≤ substrate protein remaining % ≤ 80%)”.
For the compound `O=C1CCN(N2C(=O)c3ccc(CN4CCC(c5cccc6cnccc56)CC4)cc3C2=O)C(=O)N1` [GT-07688, 2-(2,4-dioxotetrahydropyrimidin-1(2H)-yl)-5-((4-(isoquinolin-5-yl)piperidin-1-yl)methyl)isoindoline-1,3-dione], the “substrate protein remaining % WEE1” value at WEE1 is recorded as “B (80%< substrate protein remaining %≤ 100%)”. For the same compound, the “substrate protein remaining % IKZF1” value on IKZF1 is on record as “B (80%< substrate protein remaining %≤ 100%)”. For the same compound, the “substrate protein remaining % IKZF2” value at IKZF2 was “B (80%< substrate protein remaining %≤ 100%)”. In addition, the “substrate protein remaining % IKZF3” value on IKZF3 is reported as “B (80%< substrate protein remaining %≤ 100%)”. In addition, the “substrate protein remaining % CK1α” value on CK1α is reported as “B (80%< substrate protein remaining %≤ 100%)”. Moreover, the “substrate protein remaining % GSPT1” value on GSPT1 is listed as “A (0% ≤ substrate protein remaining % ≤ 80%)”.
Take `O=C1CCN(N2C(=O)c3ccc(CN4CCC(c5ccnc6cc(F)ccc56)CC4)cc3C2=O)C(=O)N1` [GT-07689, 2-(2,4-dioxotetrahydropyrimidin-1(2H)-yl)-5-((4-(7-fluoroquinolin-4-yl)piperidin-1-yl)methyl)isoindoline-1,3-dione]: the “substrate protein remaining % WEE1” value on WEE1 is “B (80%< substrate protein remaining %≤ 100%)”. The “substrate protein remaining % IKZF1” value on IKZF1 is reported as “B (80%< substrate protein remaining %≤ 100%)”. At IKZF2, the “substrate protein remaining % IKZF2” value was “B (80%< substrate protein remaining %≤ 100%)”. For the same compound, the “substrate protein remaining % IKZF3” value on IKZF3 was “B (80%< substrate protein remaining %≤ 100%)”. Besides, at CK1α, the “substrate protein remaining % CK1α” value is “A (0% ≤ substrate protein remaining % ≤ 80%)”. In addition, the “substrate protein remaining % GSPT1” value at GSPT1 was “A (0% ≤ substrate protein remaining % ≤ 80%)”.
In the case of `O=C1CCN(N2Cc3cc(CN4CC(C5CCOc6cc(F)ccc65)C4)ccc3C2=O)C(=O)N1` (stereo not drawn) [GT-07690, 1-(5-((3-(7-fluorochroman-4-yl)azetidin-1-yl)methyl)-1-oxoisoindolin-2-yl)dihydropyrimidine-2,4(1H,3H)-dione], the “substrate protein remaining % WEE1” value on WEE1 is reported as “B (80%< substrate protein remaining %≤ 100%)”. Also, the “substrate protein remaining % IKZF1” value at IKZF1 is reported as “B (80%< substrate protein remaining %≤ 100%)”. In addition, on IKZF2, the “substrate protein remaining % IKZF2” value is recorded as “A (0% ≤ substrate protein remaining % ≤ 80%)”. At IKZF3, the “substrate protein remaining % IKZF3” value is given as “B (80%< substrate protein remaining %≤ 100%)”. Moreover, the “substrate protein remaining % CK1α” value on CK1α is “A (0% ≤ substrate protein remaining % ≤ 80%)”. In addition, the “substrate protein remaining % GSPT1” value at GSPT1 is “A (0% ≤ substrate protein remaining % ≤ 80%)”.
As for `O=C1CCN(N2Cc3cc(CN4CC(c5ccnc6cc(F)ccc56)C4)ccc3C2=O)C(=O)N1` [GT-07711, 1-(5-((3-(7-fluoroquinolin-4-yl)azetidin-1-yl)methyl)-1-oxoisoindolin-2-yl)dihydropyrimidine-2,4(1H,3H)-dione], the “substrate protein remaining % WEE1” value at WEE1 is recorded as “B (80%< substrate protein remaining %≤ 100%)”. On IKZF1, the “substrate protein remaining % IKZF1” value is on record as “A (0% ≤ substrate protein remaining % ≤ 80%)”. Moreover, the “substrate protein remaining % IKZF2” value at IKZF2 is “A (0% ≤ substrate protein remaining % ≤ 80%)”. In addition, the “substrate protein remaining % IKZF3” value on IKZF3 was “A (0% ≤ substrate protein remaining % ≤ 80%)”. At CK1α, the “substrate protein remaining % CK1α” value is reported as “A (0% ≤ substrate protein remaining % ≤ 80%)”. For the same compound, the “substrate protein remaining % GSPT1” value on GSPT1 was “A (0% ≤ substrate protein remaining % ≤ 80%)”.
Take `O=C1CCN(N2C(=O)c3ccc(CN4CC(C5CCOc6cc(F)ccc65)C4)cc3C2=O)C(=O)N1` (stereo not drawn) [GT-07715, 2-(2,4-dioxotetrahydropyrimidin-1(2H)-yl)-5-((3-(7-fluorochroman-4-yl)azetidin-1-yl)methyl)isoindoline-1,3-dione]: the “substrate protein remaining % WEE1” value at WEE1 is recorded as “B (80%< substrate protein remaining %≤ 100%)”. Further, on IKZF1, the “substrate protein remaining % IKZF1” value was “B (80%< substrate protein remaining %≤ 100%)”. The “substrate protein remaining % IKZF2” value at IKZF2 was “B (80%< substrate protein remaining %≤ 100%)”. Also, at IKZF3, the “substrate protein remaining % IKZF3” value is “B (80%< substrate protein remaining %≤ 100%)”. Moreover, the “substrate protein remaining % CK1α” value at CK1α is on record as “A (0% ≤ substrate protein remaining % ≤ 80%)”. Moreover, the “substrate protein remaining % GSPT1” value at GSPT1 is “A (0% ≤ substrate protein remaining % ≤ 80%)”.
With `O=C1CCN(N2C(=O)c3ccc(CN4CC(c5ccnc6cc(F)ccc56)C4)cc3C2=O)C(=O)N1` [GT-07718, 2-(2,4-dioxotetrahydropyrimidin-1(2H)-yl)-5-((3-(7-fluoroquinolin-4-yl)azetidin-1-yl)methyl)isoindoline-1,3-dione], on WEE1, the “substrate protein remaining % WEE1” value is on record as “B (80%< substrate protein remaining %≤ 100%)”. The “substrate protein remaining % IKZF1” value on IKZF1 is reported as “B (80%< substrate protein remaining %≤ 100%)”. Also, the “substrate protein remaining % IKZF2” value on IKZF2 is “B (80%< substrate protein remaining %≤ 100%)”. At IKZF3, the “substrate protein remaining % IKZF3” value was “A (0% ≤ substrate protein remaining % ≤ 80%)”. Further, the “substrate protein remaining % CK1α” value on CK1α was “A (0% ≤ substrate protein remaining % ≤ 80%)”. Besides, the “substrate protein remaining % GSPT1” value on GSPT1 is recorded as “A (0% ≤ substrate protein remaining % ≤ 80%)”.
As to `O=C1CCN(N2Cc3cc(CN4CCn5c(nnc5C(F)(F)F)C4)ccc3C2=O)C(=O)N1` [GT-07719, 1-(1-oxo-5-((3-(trifluoromethyl)-5,6-dihydro-[1,2,4]triazolo[4,3-a]pyrazin-7(8H)-yl)methyl)isoindolin-2-yl)dihydropyrimidine-2,4(1H,3H)-dione], the “substrate protein remaining % WEE1” value on WEE1 was “B (80%< substrate protein remaining %≤ 100%)”. In addition, the “substrate protein remaining % IKZF1” value on IKZF1 is “B (80%< substrate protein remaining %≤ 100%)”. Besides, the “substrate protein remaining % IKZF2” value at IKZF2 is reported as “A (0% ≤ substrate protein remaining % ≤ 80%)”. Moreover, the “substrate protein remaining % IKZF3” value at IKZF3 is on record as “A (0% ≤ substrate protein remaining % ≤ 80%)”. On CK1α, the “substrate protein remaining % CK1α” value is given as “A (0% ≤ substrate protein remaining % ≤ 80%)”. Also, the “substrate protein remaining % GSPT1” value at GSPT1 is listed as “A (0% ≤ substrate protein remaining % ≤ 80%)”.

(Values after patent publication EP4722207A1, “OXOISOINDOLINYL-SUBSTITUTED TETRAHYDROPYRIMIDINEDIONE DERIVATIVE AND USE THEREOF” (Gluetacs Therapeutics (Shanghai) Co., Ltd., priority 2023, dated 2024).)
